Like-named read-outs stand apart in the source and are kept apart here.
Columns and labels:
human CB1 receptor [1] = biological target: T1, human CB1 receptor (Homo sapiens, UniProt P21554); assay: CB1 calcium mobilization assay (antagonist mode, against EC80 of CP55,940); assay type: cell-based
T1 construct: host or cells: CHO-RD-HGA16 cells (CHO cells overexpressing promiscuous Galpha16)

human CB1 receptor [2] = biological target: T1, human CB1 receptor; assay: CB1 calcium mobilization assay, agonist screen; assay type: cell-based; details: Table 1; 10,000 nM final concentration; mean ± SD
CB1 receptor = biological target: T2, CB1 receptor (Mus musculus, UniProt P47746); assay: [35S]GTP-γ-S binding assay in mouse cerebellar membranes, CP55,940-stimulated; assay type: biochemical; details: CP55,940 (100 nM) stimulation, mean (95% confidence interval)
T2 construct: from tissue; host or cells: cerebellar membranes of adult male CD-1 mice
T2 sequence (P47746 whole entry): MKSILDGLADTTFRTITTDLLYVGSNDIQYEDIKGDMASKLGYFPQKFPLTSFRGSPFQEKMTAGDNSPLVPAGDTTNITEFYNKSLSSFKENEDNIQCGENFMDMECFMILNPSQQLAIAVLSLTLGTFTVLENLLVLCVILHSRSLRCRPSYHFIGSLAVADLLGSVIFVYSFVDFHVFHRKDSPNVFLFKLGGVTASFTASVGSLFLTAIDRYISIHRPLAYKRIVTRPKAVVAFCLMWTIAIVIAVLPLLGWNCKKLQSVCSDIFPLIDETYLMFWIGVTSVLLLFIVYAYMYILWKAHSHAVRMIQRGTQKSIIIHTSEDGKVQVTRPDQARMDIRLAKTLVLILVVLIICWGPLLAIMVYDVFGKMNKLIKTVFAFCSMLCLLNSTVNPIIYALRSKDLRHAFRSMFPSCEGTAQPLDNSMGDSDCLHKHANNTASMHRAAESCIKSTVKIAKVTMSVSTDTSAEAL

[3] = Table 1, against EC80 (100 nM) of CP55,940, mean ± S.E.M., read-out: CB1 calcium assay IC50

T1 sequence (P21554 whole entry): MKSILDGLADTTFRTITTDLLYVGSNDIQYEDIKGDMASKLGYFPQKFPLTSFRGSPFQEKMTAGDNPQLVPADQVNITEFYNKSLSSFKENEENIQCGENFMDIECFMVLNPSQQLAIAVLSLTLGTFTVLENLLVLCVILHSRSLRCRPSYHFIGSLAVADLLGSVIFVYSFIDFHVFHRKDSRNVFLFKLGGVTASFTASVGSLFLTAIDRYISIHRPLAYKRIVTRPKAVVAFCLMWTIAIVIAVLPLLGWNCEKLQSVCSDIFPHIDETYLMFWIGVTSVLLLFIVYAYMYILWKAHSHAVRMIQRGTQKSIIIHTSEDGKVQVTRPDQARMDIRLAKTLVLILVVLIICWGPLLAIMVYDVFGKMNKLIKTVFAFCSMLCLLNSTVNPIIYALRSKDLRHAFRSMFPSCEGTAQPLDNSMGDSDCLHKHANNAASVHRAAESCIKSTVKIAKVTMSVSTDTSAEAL

IC50 (human CB1 receptor [1]; [3]) | CB1 calcium assay Agonist screen (% CP55, 940 Emax) (human CB1 receptor [2]) | IC50 (CB1 receptor) | Structure (SMILES) | IC50 (human CB1 receptor [1])
133 ± 6 nM | 23.4 ± 1.9 % CP55, 940 Emax | 1320 nM | COc1cc(-c2cccc(NC(=O)Nc3ccc(Cl)cc3)c2)ccn1 [Compound 17, 3-(4-Chlorophenyl)-1-[3-(2-methoxypyridin-4-yl)phenyl]urea] | –
47 ± 13 nM | 8.8 ± 3.1 % CP55, 940 Emax | 2650 nM | O=C(Nc1ccc(Cl)cc1)Nc1cccc(-c2ccccn2)c1 [Compound 18, 3-(4-Chlorophenyl)-1-[3-(pyridin-2-yl)phenyl]urea] | –
32 ± 7 nM | 5.1 ± 0.8 % CP55, 940 Emax | 437 nM | O=C(Nc1ccc(Cl)cc1)Nc1cccc(-c2ccccc2)c1 [Compound 22, 3-(4-Chlorophenyl)-1-(3-phenylphenyl)urea] | –
81 ± 10 nM | 12.5 ± 1.9 % CP55, 940 Emax | 827 nM | COc1cccc(-c2cccc(NC(=O)Nc3ccc(Cl)cc3)c2)c1 [Compound 23, 3-(4-Chlorophenyl)-1-[3-(3-methoxyphenyl)phenyl]urea] | –
– | – | 456 nM | Cc1cccc(-c2cccc(NC(=O)Nc3ccc(Cl)cc3)c2)c1 [Compound 27, 3-(4-Chlorophenyl)-1-[3-(3-methylphenyl)phenyl]urea] | –
30 ± 4 nM | 10.4 ± 2.1 % CP55, 940 Emax | 464 nM | O=C(Nc1ccc(Cl)cc1)Nc1cccc(-c2ccc(Cl)c(Cl)c2)c1 [Compound 32, 3-(4-Chlorophenyl)-1-[3-(3,4-dichlorophenyl)phenyl]urea] | –
18 ± 1 nM | – | 353 nM | O=C(Nc1ccc(Cl)cc1)Nc1cccc(-c2ccc(F)cc2F)c1 [Compound 35, 3-(4-Chlorophenyl)-1-[3-(2,4-difluorophenyl)phenyl]urea] | –
134 ± 13 nM | 0.2 ± 1.0 % CP55, 940 Emax | 265 nM | O=C(Nc1ccc(Cl)cc1)Nc1cccc(-c2ccc3occc3c2)c1 [Compound 41, 1-[3-(1-Benzofuran-5-yl)phenyl]-3-(4-chlorophenyl)urea] | –
– | 6.9 ± 0.5 % CP55, 940 Emax | 1520 nM | O=C(Nc1ccc(Cl)cc1)Nc1cccc(-c2ccc3ccccc3c2)c1 [Compound 42, 3-(4-Chlorophenyl)-1-[3-(naphthalen-2-yl)phenyl]urea] | –
– | 4.5 ± 0.7 % CP55, 940 Emax | 1890 nM | O=C(Nc1ccc(Cl)cc1)Nc1cccc(-c2ccc3ccccc3n2)c1 [Compound 43, 3-(4-Chlorophenyl)-1-[3-(quinolin-2-yl)phenyl]urea] | –
516 ± 70 nM | 2.6 ± 1.2 % CP55, 940 Emax | 651 nM | O=C(Nc1ccc(Cl)cc1)Nc1cccc(-c2cnc3ccccc3c2)c1 [Compound 44, 3-(4-Chlorophenyl)-1-[3-(quinolin-3-yl)phenyl]urea] | –
36 ± 1 nM | 28.9 ± 0.6 % CP55, 940 Emax | 164 nM | O=C(Nc1ccc(Cl)cc1)Nc1cccc(-c2ccsc2)c1 [Compound 47, 3-(4-Chlorophenyl)-1-[3-(thiophen-3-yl)phenyl]urea] | –
67 ± 6 nM | 12.8 ± 1.8 % CP55, 940 Emax | 573 nM | O=C(Nc1ccc(Cl)cc1)Nc1cccc(-c2cccs2)c1 [Compound 48, 3-(4-Chlorophenyl)-1-[3-(thiophen-2-yl)phenyl]urea] | –
40 ± 4 nM | 3.7 ± 1.7 % CP55, 940 Emax | 776 nM | Cc1cc(-c2cccc(NC(=O)Nc3ccc(Cl)cc3)c2)cs1 [Compound 49, 3-(4-Chlorophenyl)-1-[3-(5-methylthiophen-3-yl)phenyl]urea] | –
42 ± 6 nM | 4.6 ± 1.4 % CP55, 940 Emax | 372 nM | Cc1ccc(-c2cccc(NC(=O)Nc3ccc(Cl)cc3)c2)s1 [Compound 50, 3-(4-Chlorophenyl)-1-[3-(5-methylthiophen-2-yl)phenyl]urea] | –
94 ± 9 nM | 8.1 ± 3.1 % CP55, 940 Emax | 331 nM | O=C(Nc1ccc(Cl)cc1)Nc1cccc(-c2cncs2)c1 [Compound 51, 3-(4-Chlorophenyl)-1-[3-(1,3-thiazol-5-yl)phenyl]urea] | –
84 ± 6 nM | 8.6 ± 4.4 % CP55, 940 Emax | 250 nM | O=C(Nc1ccc(Cl)cc1)Nc1cccc(-c2cscn2)c1 [Compound 52, 3-(4-Chlorophenyl)-1-[3-(1,3-thiazol-4-yl)phenyl]urea] | –
154 ± 14 nM | 20.1 ± 1.1 % CP55, 940 Emax | 1260 nM | O=C(Nc1ccc(Cl)cc1)Nc1cccc(-c2nccs2)c1 [Compound 53, 3-(4-Chlorophenyl)-1-[3-(1,3-thiazol-2-yl)phenyl]urea] | –
169 ± 34 nM | 13.7 ± 0.1 % CP55, 940 Emax | 40 nM | O=C(Nc1ccc(Cl)cc1)Nc1cccc(-c2ccc[nH]2)c1 [Compound 65, 3-(4-Chlorophenyl)-1-[3-(1H-pyrrol-2-yl)phenyl]urea] | –
165 ± 14 nM | 3.4 ± 2.9 % CP55, 940 Emax | 665 nM | Cn1cccc1-c1cccc(NC(=O)Nc2ccc(Cl)cc2)c1 [Compound 68, 3-(4-Chlorophenyl)-1-[3-(1-methyl-1H-pyrrol-2-yl)phenyl]urea] | –
529 ± 98 nM | 4.3 ± 0.5 % CP55, 940 Emax | 343 nM | O=C(Nc1ccc(Cl)cc1)Nc1cccc(-c2ncc[nH]2)c1 [Compound 72, 3-(4-Chlorophenyl)-1-[3-(1H-imidazol-2-yl)phenyl]urea] | –
2880 nM | 27.6 ± 2.0 % CP55, 940 Emax | – | CN1CCN(c2cccc(NC(=O)Nc3ccc(Cl)cc3)c2)CC1 [Compound 79, 1-(4-Chlorophenyl)-3-[3-(4-methylpiperazin-1-yl)phenyl]urea] | –
92 ± 9 nM | 14.0 ± 0.6 % CP55, 940 Emax | – | O=C(Nc1ccc(Cl)cc1)Nc1cccc(N2CCC(F)(F)CC2)c1 [Compound 81, 3-(4-Chlorophenyl)-1-[3-(4,4-difluoropiperidin-1-yl)phenyl]urea] | –
350 ± 37 nM | 18.6 ± 1.1 % CP55, 940 Emax | – | O=C(Nc1ccc(Cl)cc1)Nc1cccc(N2CCCCCC2)c1 [Compound 83, 1-[3-(Azepan-1-yl)phenyl]-3-(4-chlorophenyl)urea] | –
113 ± 19 nM | 14.5 ± 4.9 % CP55, 940 Emax | – | CN(C)c1cccc(NC(=O)Nc2ccc(Cl)cc2)c1 [Compound 85, 1-(4-Chlorophenyl)-3-[3-(dimethylamino)phenyl]urea] | –
297 ± 37 nM | 20.9 ± 0.2 % CP55, 940 Emax | – | CCN(CC)c1cccc(NC(=O)Nc2ccc(Cl)cc2)c1 [Compound 86, 3-(4-Chlorophenyl)-1-[3-(diethylamino)phenyl]urea] | –
> 10000 nM | 27.5 ± 4.5 % CP55, 940 Emax | – | O=C(Nc1ccc(Cl)cc1)Nc1cccc(CN2CCCC2)c1 [Compound 90, 3-(4-Chlorophenyl)-1-[3-(pyrrolidin-1-ylmethyl)phenyl]urea] | –
520 ± 36 nM | 13.6 ± 2.4 % CP55, 940 Emax | – | COc1cccc(NC(=O)Nc2ccc(Cl)cc2)c1 [Compound 91, 3-(4-Chlorophenyl)-1-(3-methoxyphenyl)urea] | –
277 ± 36 nM | 11.7 ± 1.4 % CP55, 940 Emax | – | O=C(Nc1ccc(Cl)cc1)Nc1cccc(OC2CCCC2)c1 [Compound 95, 3-(4-Chlorophenyl)-1-[3-(cyclopentyloxy)phenyl]urea] | –

Structure (SMILES) | IC50 (human CB1 receptor [1]; [3]) | CB1 calcium assay Agonist screen (% CP55, 940 Emax) (human CB1 receptor [2]) | IC50 (CB1 receptor) | IC50 (human CB1 receptor [1])
O=C(Nc1ccc(Cl)cc1)Nc1cccc(-c2ccc3c(c2)OCO3)c1 [Compound 26, 1-[3-(2H-1,3-Benzodioxol-5-yl)phenyl]-3-(4-chlorophenyl)urea] | 70 ± 14 nM | 9.8 ± 3.5 % CP55, 940 Emax | 619 nM | –
O=C(Nc1ccc(Cl)cc1)Nc1cccc(-c2cccc([N+](=O)[O-])c2)c1 [Compound 29, 3-(4-Chlorophenyl)-1-[3-(3-nitrophenyl)phenyl]urea] | 27 ± 2 nM | – | 452 nM | –
O=C(Nc1ccc(Cl)cc1)Nc1cccc(-c2cc(Cl)cc(Cl)c2)c1 [Compound 31, 3-(4-Chlorophenyl)-1-[3-(3,5-dichlorophenyl)phenyl]urea] | 22 ± 2 nM | 15.5 ± 2.4 % CP55, 940 Emax | 299 nM | –
O=C(Nc1ccc(Cl)cc1)Nc1cccc(-c2cccc(-c3ccccc3)c2)c1 [Compound 38, 3-(4-Chlorophenyl)-1-[3-(3-phenylphenyl)phenyl]urea] | 195 ± 40 nM | 0.5 ± 0.2 % CP55, 940 Emax | 559 nM | –
O=C(Nc1ccc(Cl)cc1)Nc1cccc(-c2ccoc2)c1 [Compound 46, 3-(4-Chlorophenyl)-1-[3-(furan-3-yl)phenyl]urea] | 41 ± 9 nM | – | 440 nM | –
O=C(Nc1ccc(Cl)cc1)Nc1cccc(N2CCCC2)c1 [Compound 78, 1-(4-Chlorophenyl)-3-[3-(pyrrolidin-1-yl)phenyl]urea] | 40 ± 4 nM | 0.6 ± 0.5 % CP55, 940 Emax | – | –
O=C(Nc1ccc(Cl)cc1)Nc1cccc(N2CCC2)c1 [Compound 80, 3-[3-(Azetidin-1-yl)phenyl]-1-(4-chlorophenyl)urea] | 35 ± 5 nM | – | 1380 nM | –
O=C(Nc1ccc(Cl)cc1)Nc1cccc(N2C3CCC2CC3)c1 [Compound 82, 3-(4-Chlorophenyl)-1-{3-[(1S,4S)-7-azabicyclo[2.2.1]heptan-7-yl]phenyl}urea] | – | 5.5 ± 1.3 % CP55, 940 Emax | – | 2700 nM
